Literature values as cited in patent US11337989B2, “Compositions and methods for inhibiting inflammation and diseases using an alginic acid-based antimicrobial compound” (Evofem, Inc., priority 2013, dated 2022).

Columns and labels:
[1] = test system: HIV; details: compared with D or racemic lactic acid; Purcell et al. 2012
[2] = at an acidic pH
[3] = test system: bacteria associated with bacterial vaginosis; details: in vaginal fluid; O'Hanlon et al. 2011
[4] = test system: vaginal and cervical cells

## C[C@H](O)C(=O)O [L form of lactic acid, L-(+)-lactic acid]
[1]
  potency in inactivating HIV: more potent

## C[C@H](Cn1cnc2c(N)ncnc21)OCP(=O)(O)O [Tenofovir, 1-(6-aminopurin-9-yl)propan-2-yloxymethylphosphonic acid]
[2]
  water solubility: not water soluble

## CC(O)C(=O)O (stereo not shown) [lactic acid]
[3]
  suppression of bacteria associated with bacterial vaginosis: suppressed

## nonoxynol-9 [N-9]
[4]
  toxicity to vaginal and cervical cells: toxic
